Source: PMC8011643 (Bioorganic & medicinal chemistry letters, 2019)
Read-outs that look alike come from different tables or passages of the source.

Key:
human CXCR6 receptor [1] = biological target: T1, human CXCR6 receptor (Homo sapiens, UniProt O00574); type: cell-based
human CXCR6 receptor [2] = biological target: T1, human CXCR6 receptor; assay: Antagonism of CXCL16; type: cell-based; settings: vs ML339
SK-HEP-1 hepatoma cells = assay: SK-Hep-1 invasion/migration, live cell transwell assay; type: cell-based, human; settings: for effect on SK-Hep-1 invasion in words: live cell transwell assay
[3] = Solubility in aqueous buffer; type: physicochemical; settings: pH range 5.0–7.4
PAMPA permeability = type: in vitro ADME
Plasma protein binding = type: in vitro ADME
[4] = Stability in mouse plasma; type: in vitro ADME
[5] = Stability in human plasma; type: in vitro ADME
human liver microsomes = assay: Metabolic stability in human liver microsomes; type: in vitro ADME; settings: within 1h
[6] = Metabolic stability in mouse liver microsomes; type: in vitro ADME; settings: within 1h
[7] = Rapid Assessment of Compound Exposure; type: in vivo, mouse
CCR6 human receptor = settings: read-out: IC50 against CCR6; previously reported; cited from earlier work
CXCR5 human receptor = settings: read-out: IC50 against CXCR5; previously reported; cited from earlier work
CXCR4 human receptor = settings: read-out: IC50 against CXCR4; previously reported; cited from earlier work

T1 sequence (O00574 whole entry): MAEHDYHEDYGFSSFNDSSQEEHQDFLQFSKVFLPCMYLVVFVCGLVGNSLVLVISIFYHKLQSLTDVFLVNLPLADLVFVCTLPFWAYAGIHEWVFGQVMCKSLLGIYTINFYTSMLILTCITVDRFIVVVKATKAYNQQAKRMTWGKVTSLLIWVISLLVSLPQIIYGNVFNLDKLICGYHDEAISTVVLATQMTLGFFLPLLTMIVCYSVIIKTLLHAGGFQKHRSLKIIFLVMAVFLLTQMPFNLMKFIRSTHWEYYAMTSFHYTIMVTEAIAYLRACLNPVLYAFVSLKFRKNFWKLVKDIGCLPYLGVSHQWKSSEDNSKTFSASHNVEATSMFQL

## COc1cc(C(=O)N[C@@H]2C[C@H]3CCC[C@@H](C2)N3Cc2ccccc2Cl)cc(OC)c1OC [Compound 59]
Human CXCR6 receptor [1]; vs compound 17
  fold lower activity than compound 17: 48 fold

## COc1cc(C(=O)N[C@@H]2C[C@H]3CCC[C@@H](C2)N3CC(=O)c2nc3ccccc3s2)cc(OC)c1OC [Compound 72]
Human CXCR6 receptor [1]; carbonyl linkage, comparator not named
  fold loss in activity: 100 fold

## COc1cc(C(=O)N[C@@H]2C[C@H]3CCC[C@@H](C2)N3Cc2nc3c(C(F)(F)F)cccc3s2)cc(OC)c1OC [Compound 81]
Human CXCR6 receptor [1]
  EC50: 0.04 µM
Human CXCR6 receptor [1]; vs ML339
  fold improvement in potency in β-arrestin assay: ≥ 10 fold
Human CXCR6 receptor [2]
  fold improvement in potency in cAMP assay: ≥ 10 fold
SK-HEP-1 hepatoma cells; SK-HEP-1, 72 h
  cell viability in words: without loss in cell viability
[3]
  solubility in words: good solubility
PAMPA permeability
  PAMPA permeability in words: good PAMPA permeability
Plasma protein binding
  plasma protein binding in words: high plasma protein binding
[4]
  stability in mouse plasma in words: excellent stability
[5]
  stability in human plasma in words: excellent stability
Human liver microsomes
  metabolism in human liver microsomes in words: almost completely metabolized
[6]
  metabolism in mouse liver microsomes in words: almost completely metabolized
[7]; 10 mg/kg oral dose, DMSO: Tw80: H2O (1:1:8)
  exposure in RACE assay in words: good exposure
[7]; mice
  bioavailability in words: good bioavailability
SK-HEP-1 tumor; 30 mg/kg oral, Day 4 to Day 30, P < 0.0005
  SK-HEP-1 tumor growth vs vehicle in words: significantly inhibited
SK-HEP-1 tumor; 60 mg/kg oral, Day 4 to Day 30, P < 0.0002
  SK-HEP-1 tumor growth vs vehicle in words: significantly inhibited
SK-HEP-1 tumor; 30 and 60 mg/kg, 30-day study
  toxicity to mice in words: non-toxic

## COc1cc(C(=O)N[C@@H]2C[C@H]3CCC[C@@H](C2)N3Cc2nc3c(Cl)cccc3s2)cc(OC)c1OC [Compound 73]
SK-HEP-1 hepatoma cells
  effect on SK-Hep-1 invasion in words: inhibited invasion

## COc1cc(C(=O)N[C@@H]2C[C@H]3CCC[C@@H](C2)N3CC(=O)Nc2ccccc2Cl)cc(OC)c1OC [Compound 17]
CCR6 human receptor
  IC50: > 80 µM
CXCR5 human receptor
  IC50: > 80 µM
CXCR4 human receptor
  IC50: > 80 µM

## O=C(CN1[C@@H]2CCC[C@H]1C[C@H](NC(=O)c1ccccc1)C2)Nc1ccccc1 [Compound 6]
SK-HEP-1 hepatoma cells
  effect on SK-Hep-1 invasion in words: had no effect
